Assay [1] addresses T1, BRAF^V600E (A375 xenograft) (Homo sapiens, UniProt P15056, V600E).
T1 construct: 5 million A375 cells were subcutaneously implanted in female nu/nu mice; endogenous in cells; host or cells: A375 cells as subcutaneous xenograft tumour in female nu/nu mice
The experiment in a line: A375 xenograft study, BRAF degradation in tumor. In kind it is in vivo, mice. To be noted: 50 mg/kg or 150 mg/kg i.p. once a day for 3 days, 8 h after final dose. Here is the method: 5 million A375 cells were subcutaneously implanted in female nu/nu mice. […] Mice were sacrificed 8 h after the final dose. Tissues were harvested, flash frozen, and lysed in 1X cell lysis buffer (Cell Signaling #9803) supplemented with protease and phosphatase inhibitors. Harvested tumors were disrupted using metal beads in a Tissuelyser. Homogenates were normalized for protein content and analyzed using SDS-PAGE and Western blotting. All studies were performed in compliance with institutional guidelines under an IACUC approved protocol.

Assay [2] deals with SK-MEL-28 cells (Class 1, BRAF^V600E). The experiment in a line: Cell proliferation (MTS) assay. In kind it is cell-based.
For assay [3], the target named is T2, NanoLuc-BRAF^WT : HaloTag-VHL (HEK293T cells) (Homo sapiens, UniProt P15056).
T2 construct: Full-length BRAF (WT and V600E) was cloned into the pNLF1-C [CMV/Hygro] vector; host or cells: HEK 293 T, transient co-transfection
The experiment in a line: NanoBRET ternary complex assay. It is filed as cell-based. To be noted: cells expressing BRAF^WT, concentrations as high as 10 μM, 3 h. The protocol: (§1) Full-length BRAF (WT and V600E) was cloned into the pNLF1-C [CMV/Hygro] vector. HEK 293 T cells were seeded into 6 well dishes (~75% confluent) and co-transfected with HaloTag-VHL (Promega; N273A) and C-terminal nanoLUC-tagged BRAF. Transfection was performed using a ratio of 1:2 DNA to Lipofectamine 2000. After 24 h, 1 × 10^4 cells were seeded into white 96 well plates (Costar Cat# 3610) in Opti-MEM™ I Reduced Serum Medium supplemented with 4% FBS and […] HaloTag NanoBRET 618 ligand or DMSO. The next day, the cells were pre-treated with 2 μM MG-132 for 1 h then treated with indicated amount of drug for 3 h. 6X NanoBRET Nano-Glo Substrate in Opti-MEM was then added to each well and the plate was read using a Perkin Elmer Envision. Dual filtered luminescence was measured with a 430 nm (donor, […]) and a 615 nm filter (acceptor, […]). Background corrected (cells without HaloTag 618 ligand) nanoBRET ratios were calculated to determine intracellular ternary complex formation.

Assay [4] addresses T3, NanoLuc-BRAF^V600E : HaloTag-VHL (HEK293T cells) (Homo sapiens, UniProt P15056+P40337, V600E).
T3 construct: Full-length BRAF (WT and V600E) was cloned into the pNLF1-C [CMV/Hygro] vector; host or cells: HEK 293 T, transient co-transfection
As to the kind of experiment: NanoBRET ternary complex assay. It is filed as cell-based. The settings on record: cells expressing BRAF^V600E, 3 h. The protocol:
as §1
In general terms: In BRET a luciferase serves as donor, and the signal depends on an acceptor being close.

The test system of assay [5] is VBC:PROTAC:BRAF ternary complex (V5-BRAF^V600E vs V5-BRAF^WT, NIH3T3 lysates). As to the kind of experiment: Cell lysate based ternary complex (GST-VBC pulldown) assay. In kind it is binding. To be noted: 5000 nM SJF-0628. The protocol:
Glutathione sepharose 4B was washed twice with water and then blocked for 1 h at room temperature with 10% BSA in TBST. The beads were then washed again twice with TBST and once with wash buffer (50 mM HEPES pH 7.5, 150 mM NaCl, 1 mM DTT, 0.01% NP40, 5 mM MgCl2, 10% glycerol) and then purified GST-VBC was immobilized for 2 h at 4 °C at 2.5 pmole per μL of beads. The beads were then washed thrice with wash buffer, resuspended and BRAF WT or V600E protein was added at 500 nM per 50 μL reaction with 5 μL of beads. The bead:BRAF mixture was then aliquoted to separate tubes and PROTAC was added at the indicated concentration (PROTACs were intermediately diluted in 50% DMSO) and this was incubated at 4 °C for 2 h. The beads were washed 4 times with 1 mL column of TBST and then eluted with SDS loading buffer.
For experiments in which the input substrate is a whole cell lysate, the sample was prepared as follows: […] of confluent NIH3T3 cells were doxycycline induced overnight, after which the cells were washed with DPBS and lysed using lysis buffer (50 mM Tris-HCl, pH 7.4, 015 M NaCl, 1 mM EDTA,1% NP40, 10% glycerol). The lysate was cleared by centrifugation and then added to the beads as an input substrate, as above.

The results in this text go back to publication PMC7876048, “Mutant-selective degradation by BRAF-targeting PROTACs” (Nature Communications, 2021).

Molecules are shown by their SMILES.

T1 sequence (P15056 whole entry V600E): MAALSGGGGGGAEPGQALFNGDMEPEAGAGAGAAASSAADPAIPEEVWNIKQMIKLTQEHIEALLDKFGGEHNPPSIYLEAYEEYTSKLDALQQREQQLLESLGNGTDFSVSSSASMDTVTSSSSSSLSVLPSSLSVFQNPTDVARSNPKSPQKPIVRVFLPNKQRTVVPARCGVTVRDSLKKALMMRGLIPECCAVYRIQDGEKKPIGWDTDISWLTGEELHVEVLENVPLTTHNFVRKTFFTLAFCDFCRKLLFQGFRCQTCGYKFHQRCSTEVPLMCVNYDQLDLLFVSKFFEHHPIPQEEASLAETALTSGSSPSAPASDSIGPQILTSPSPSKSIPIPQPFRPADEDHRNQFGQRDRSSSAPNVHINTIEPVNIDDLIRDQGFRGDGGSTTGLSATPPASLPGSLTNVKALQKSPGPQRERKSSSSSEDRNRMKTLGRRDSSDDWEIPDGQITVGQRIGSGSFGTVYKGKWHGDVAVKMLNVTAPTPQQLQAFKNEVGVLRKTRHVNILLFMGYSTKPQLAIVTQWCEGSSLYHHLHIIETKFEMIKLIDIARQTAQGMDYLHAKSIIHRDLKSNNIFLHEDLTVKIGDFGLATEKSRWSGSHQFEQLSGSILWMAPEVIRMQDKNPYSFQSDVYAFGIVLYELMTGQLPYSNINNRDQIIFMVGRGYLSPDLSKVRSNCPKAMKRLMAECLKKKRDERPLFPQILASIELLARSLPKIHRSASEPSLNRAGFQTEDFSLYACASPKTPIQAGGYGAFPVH
T3 sequence (P15056 whole entry V600E): as above
T3 sequence (P40337 whole entry): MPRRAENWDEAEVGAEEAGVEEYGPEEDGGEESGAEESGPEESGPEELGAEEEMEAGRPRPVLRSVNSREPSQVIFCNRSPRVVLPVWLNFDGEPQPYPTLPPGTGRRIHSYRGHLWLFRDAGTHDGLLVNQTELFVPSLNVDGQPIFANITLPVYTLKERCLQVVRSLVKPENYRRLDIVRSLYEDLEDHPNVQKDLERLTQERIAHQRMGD
T3 sequence (Q15369 whole entry partner): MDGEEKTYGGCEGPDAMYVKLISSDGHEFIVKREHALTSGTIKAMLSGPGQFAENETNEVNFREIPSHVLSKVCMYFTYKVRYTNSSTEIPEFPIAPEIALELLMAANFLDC
T3 sequence (Q15370 whole entry partner): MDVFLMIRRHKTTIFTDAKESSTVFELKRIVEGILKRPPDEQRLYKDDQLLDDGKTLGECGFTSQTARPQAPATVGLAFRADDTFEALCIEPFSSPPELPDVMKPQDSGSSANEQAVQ

For `CCCS(=O)(=O)Nc1ccc(F)c(C(=O)c2c[nH]c3ncc(-c4ccc(N5CCN(CC(=O)NC(C(=O)N6CC(O)CC6C(=O)NCc6ccc(-c7scnc7C)cc6)C(C)(C)C)CC5)cc4)cc23)c1F` (stereo not drawn) [SJF-0628], in assay [1], the “DMAX, degradation of BRAF in the xenograft” value is > 90%. Moreover, the EC50 in assay [2] (Homo sapiens, 72 h, 3 days, read-out: EC50, cell growth) amounted to 37 ± 1.2 nM. Further, the “increase in potency of SJF-0628 (cell growth)” value in assay [2] (vs vemurafenib and SJF-0661) was 6 fold. Also, the BRET signal result in assay [3] is given as “no observed increase”; in assay [4], “an increase in BRET signal”. Further, in assay [5], the “ternary complex with VHL, BRAF^V600E relative to BRAF^WT” value is ~ 3 fold.

What is called EC50 is the midpoint of the concentration-response curve.
